Source: publication PMC10377643, “Exploration of Bis-Cinnamido-Polyamines as Intrinsic Antimicrobial Agents and Antibiotic Enhancers” (Biomolecules, 2023)
In brackets after ≈: the same amount, converted by molar mass. Like-named read-outs stand apart in the source and are kept apart here. One block for each molecule: values may come before it.

Assays:
P. aeruginosa = tested on: P. aeruginosa; design: method as in PMID 36982955; conditions: cited from earlier work
[1] = tested on: antimicrobial activity (microbes not named); design: method as in PMID 36982955; conditions: cited from earlier work
A. baumannii AYE [2] = assay: Intrinsic MIC, A. baumannii AYE; format: cell-based; conditions: Acinetobacter baumannii, read-out: MIC alone, A. b
Method: (§1) Antibiotic enhancer concentrations were determined using previously reported protocols.

MRSA ATCC 43300 = assay: Antimicrobial MIC, MRSA (CO-ADD); format: cell-based, methicillin-resistant S. aureus; conditions: Staphylococcus aureus, read-out: MIC MRSA
Method: (§2) The susceptibility of bacterial strains S. aureus (ATCC 25923), E. coli (ATCC 25922) and P. aeruginosa (ATCC 27853) to antibiotics and compounds was determined using protocols reported previously. Additional antimicrobial evaluation against MRSA (ATCC 43300), Klebsiella pneumoniae (ATCC 700603), Acinetobacter baumannii (ATCC 19606), Candida albicans (ATCC 90028) and Cryptococcus neoformans (ATCC 208821) was undertaken at the Community for Open Antimicrobial Drug Discovery at The University of Queensland (Australia) according to their standard protocols reported previously.

K. pneumoniae ATCC 13883 [3] = assay: Intrinsic MIC, K. pneumoniae ATCC 13883; format: cell-based; conditions: Klebsiella pneumoniae
Method: as §1

P. aeruginosa PAO1 [4] = assay: Intrinsic MIC, P. aeruginosa PAO1; format: cell-based; conditions: Pseudomonas aeruginosa
Method: as §1

K. pneumoniae ATCC 13883 [5] = assay: Antibiotic potentiation by 13b, K. pneumoniae; format: cell-based, Klebsiella pneumoniae
Method: as §1
(§3) The antibiotic-enhancing activities of 13b, the strongest non-toxic doxycycline enhancer, were further evaluated with an expanded set of antibiotics (minocycline, chloramphenicol, vancomycin, nalidixic acid and erythromycin) against three drug-resistant strains of Gram-negative bacteria (P. aeruginosa, K. pneumoniae and A. baumannii) (Table 3). […] However, 13b was able to strongly potentiate the activity of minocycline against P. aeruginosa, K. pneumoniae and A. baumannii (>41-fold, >82-fold and >82-fold, respectively) while also enhancing the activity of doxycycline against P. aeruginosa (>40-fold). The enhancing activity of doxycycline against A. baumannii and K. pneumoniae was not investigated due to its sensitivity to these strains.

E. coli ATCC 25922 [6] = assay: Erythromycin enhancement against E. coli; format: cell-based, Escherichia coli; conditions: erythromycin fixed at 10.9 µM (8 µg/mL)
Method: as §1

[7] = tested on: C. neoformans ATCC 208821; assay: Antifungal MIC, C. neoformans (CO-ADD); format: cell-based; conditions: Cryptococcus neoformans, ATCC208821, mean (n = 2)
Method: as §2

[8] = tested on: HEK293 human embryonic kidney cells; assay: Cytotoxicity assay; format: cell-based; conditions: mean (n = 2)
Method: (§4) Cytotoxicity assays were conducted using the protocols previously reported.

Cytotoxicity assay = format: cell-based, human; conditions: human, HEK293 human embryonic kidney cells, mean (n = 2), read-out: Cytotoxicity (IC50), concentration of compound at 50% cytotoxicity
Method: as §4

S. aureus ATCC 25923 = assay: Antimicrobial MIC, S. aureus; format: cell-based; conditions: Staphylococcus aureus, ATCC25923, mean (n = 3)
Method: as §2

human red blood cells = assay: Hemolytic assay; format: cell-based; conditions: mean (n = 2)
Method: Hemolysis assays were conducted using the protocols previously reported.

P. aeruginosa ATCC 27853 [9] = assay: Doxycycline enhancement against P. aeruginosa; format: cell-based, Pseudomonas aeruginosa; conditions: doxycycline fixed at 4.5 µM
Method: as §1
We then evaluated the set of analogues for the ability to enhance the antibiotic activity of doxycycline against P. aeruginosa ATCC 27853 and of erythromycin against E. coli ATCC 25922 (Table 2). In the case of doxycycline, a fixed concentration of the antibiotic of 4.5 μM, which is twenty-fold lower than the intrinsic MIC 90 μM against this organism, was used. Each of the test compounds was then evaluated at a range of concentrations varying from 3.125 to 50–100 μM, with the upper concentration dependent upon the compounds intrinsic MIC towards P. aeruginosa (Table 1). […] While the observation of cytotoxicity/hemolytic properties of 16a–c, 14f and 13f reduces our interest in these analogues, analogues 13b and 13d were identified as non-toxic and strong enhancers of the action of doxycycline towards P. aeruginosa.

A. baumannii AYE [10] = assay: Antibiotic potentiation by 13b, A. baumannii; format: cell-based, Acinetobacter baumannii
Method: as §1, §3

P. aeruginosa PAO1 [11] = assay: Antibiotic potentiation by 13b, P. aeruginosa PAO1; format: cell-based, Pseudomonas aeruginosa
Method: as §1, §3

E. coli ATCC 25922 [12] = assay: Antimicrobial MIC, E. coli; format: cell-based, Escherichia coli; conditions: Escherichia coli, ATCC25922, E. coli ATCC 25922; mean (n = 3)
Method: as §2

P. aeruginosa ATCC 27853 [13] = assay: Antimicrobial MIC, P. aeruginosa; format: cell-based; conditions: Pseudomonas aeruginosa, ATCC27853, mean (n = 3)
Method: as §2

C. albicans ATCC 90028 = assay: Antifungal MIC, C. albicans (CO-ADD); format: cell-based; conditions: Candida albicans, ATCC90028, mean (n = 2)
Method: as §2

S. aureus = tested on: S. aureus; design: method as in PMID 22515429; conditions: natural product; cited from earlier work
Pseudomonas aeruginosa = tested on: Pseudomonas aeruginosa; design: method as in PMID 22515429; conditions: natural product; cited from earlier work
[14] = A. baumannii AYE, substance alone
[15] = ATCC13883, K. pneumoniae ATCC 13883, substance alone, read-out: MIC alone, K. p
[16] = P. aeruginosa PAO1, substance alone (no antibiotic / no enhancer), read-out: MIC alone, P. a

Structure (SMILES): O=C(CCc1ccccc1)NCCCNCCCCCCCCNCCCNC(=O)CCc1ccccc1 [Compound 18]
Ability to enhance the action of doxycycline towards P. aeruginosa (P. aeruginosa): devoid | Antimicrobial activity [1]: devoid of antimicrobial activity

Structure (SMILES): CN[C@H](CC(C)C)C(=O)N[C@H]1C(=O)N[C@@H](CC(N)=O)C(=O)N[C@H]2C(=O)N[C@H]3C(=O)N[C@H](C(=O)N[C@H](C(=O)O)c4cc(O)cc(O)c4-c4cc3ccc4O)[C@H](O)c3ccc(c(Cl)c3)Oc3cc2cc(c3O[C@@H]2O[C@H](CO)[C@@H](O)[C@H](O)[C@H]2O[C@H]2C[C@](C)(N)[C@H](O)[C@H](C)O2)Oc2ccc(cc2Cl)[C@H]1O [vancomycin]
MIC (A. baumannii AYE [2]): 138 µM (≈ 200 µg/mL) | MIC (MRSA ATCC 43300): 0.7 µM (≈ 1.01 µg/mL) | MIC (K. pneumoniae ATCC 13883 [3]; ATCC13883, read-out: MIC alone, K. p): 138 µM (≈ 200 µg/mL) | MIC (P. aeruginosa PAO1 [4]; PAO1, read-out: MIC alone, P. a): 138 µM (≈ 200 µg/mL)

MIC (A. baumannii AYE [2]; [14]): 27 µM (≈ 12.4 µg/mL) | MIC (K. pneumoniae ATCC 13883 [3]; [15]): 27 µM (≈ 12.4 µg/mL) | MIC (P. aeruginosa PAO1 [4]; [16]): 70 µM
Structure (SMILES): CN(C)c1ccc(O)c2c1C[C@H]1C[C@H]3[C@H](N(C)C)C(O)=C(C(N)=O)C(=O)[C@@]3(O)C(O)=C1C2=O [minocycline]

Structure (SMILES): O=C(C=Cc1ccccc1)NCCCNCCCCCCNCCCNC(=O)C=Cc1ccccc1.O=C(O)C(F)(F)F.O=C(O)C(F)(F)F [Compound 13b, N^1,N^6-Bis(3-cinnamamidopropyl)hexane-1,6-diaminium 2,2,2-trifluoroacetate]
Concentration for potentiation of chloramphenicol (K. pneumoniae ATCC 13883 [5]; chloramphenicol 2 µg/mL, n = 2): >200 µM | Concentration for potentiation of erythromycin (K. pneumoniae ATCC 13883 [5]; erythromycin 2 µg/mL, n = 2): >200 µM | Fold change, minocycline (K. pneumoniae ATCC 13883 [5]; minocycline 2 µg/mL): > 82 fold | Concentration for potentiation of minocycline (K. pneumoniae ATCC 13883 [5]; minocycline 2 µg/mL, n = 2): 3.41 µM | Concentration for potentiation of nalidixic acid (K. pneumoniae ATCC 13883 [5]; nalidixic acid 2 µg/mL, n = 2): >200 µM | Fold change, vancomycin (K. pneumoniae ATCC 13883 [5]; vancomycin 2 µg/mL): > 2 fold | Concentration for potentiation of vancomycin (K. pneumoniae ATCC 13883 [5]; vancomycin 2 µg/mL, n = 2): 138 µM | Eryth/E. c: concentration required to restore erythromycin activity (E. coli ATCC 25922 [6]): 25 µM | Eryth/E. c: fold change (intrinsic MIC of test compound / combination MIC) (E. coli ATCC 25922 [6]): 4 fold | MIC [7]: 44.5 µM | MIC (A. baumannii AYE [2]; [14]): > 278 µM | Cytotoxicity (IC50), concentration of compound at 50% cytotoxicity [8]: non-toxic | IC50 (Cytotoxicity assay): > 44.5 µM | MIC (MRSA ATCC 43300; MRSA ATCC 43300, mean (n = 2)): > 44.5 µM | MIC (S. aureus ATCC 25923): > 200 µM | Hemolysis (HC10), concentration of compound at 10% hemolytic activity (human red blood cells): >44.5 µM | Dox/P. a: concentration required to restore doxycycline activity (P. aeruginosa ATCC 27853 [9]): 3.125 µM | Fold change, chloramphenicol (A. baumannii AYE [10]; chloramphenicol 2 µg/mL): > 4 fold | Concentration for potentiation of chloramphenicol (A. baumannii AYE [10]; chloramphenicol 2 µg/mL, n = 2): 77.4 µM | Fold change, erythromycin (A. baumannii AYE [10]; erythromycin 2 µg/mL): > 2 fold | Concentration for potentiation of erythromycin (A. baumannii AYE [10]; erythromycin 2 µg/mL, n = 2): 136 µM | Fold change, minocycline (A. baumannii AYE [10]; minocycline 2 µg/mL): > 82 fold | Concentration for potentiation of minocycline (A. baumannii AYE [10]; minocycline 2 µg/mL, n = 2): 3.41 µM | Concentration for potentiation of nalidixic acid (A. baumannii AYE [10]; nalidixic acid 2 µg/mL, n = 2): >200 µM | Fold change, vancomycin (A. baumannii AYE [10]; vancomycin 2 µg/mL): > 2 fold | Concentration for potentiation of vancomycin (A. baumannii AYE [10]; vancomycin 2 µg/mL, n = 2): 138 µM | Fold change, chloramphenicol (P. aeruginosa PAO1 [11]; chloramphenicol 2 µg/mL): > 7 fold | Concentration for potentiation of chloramphenicol (P. aeruginosa PAO1 [11]; chloramphenicol 2 µg/mL, n = 2): 38.7 µM | Fold change, doxycycline (P. aeruginosa PAO1 [11]; doxycycline 2 µg/mL): > 40 fold | Concentration for potentiation of doxycycline (P. aeruginosa PAO1 [11]; doxycycline 2 µg/mL, n = 2): 7.03 µM | Fold change, erythromycin (P. aeruginosa PAO1 [11]; erythromycin 2 µg/mL): > 2 fold | Concentration for potentiation of erythromycin (P. aeruginosa PAO1 [11]; erythromycin 2 µg/mL, n = 2): 136 µM | Fold change, minocycline (P. aeruginosa PAO1 [11]; minocycline 2 µg/mL): > 41 fold | Concentration for potentiation of minocycline (P. aeruginosa PAO1 [11]; minocycline 2 µg/mL, n = 2): 6.83 µM | MIC (E. coli ATCC 25922 [12]): 100 µM | MIC (P. aeruginosa ATCC 27853 [13]): > 200 µM | MIC (K. pneumoniae ATCC 13883 [3]; [15]): > 278 µM | MIC (P. aeruginosa PAO1 [4]; [16]): > 278 µM | MIC (C. albicans ATCC 90028): > 44.5 µM

Structure (SMILES): COc1c(Br)cc(/C=C/C(=O)NCCCNCCCCNCCCNC(=O)/C=C/c2cc(Br)c(OC)c(Br)c2)cc1Br.O=C(O)C(F)(F)F.O=C(O)C(F)(F)F [Compound 16a, N^1,N^4-Bis(3-((E)-3-(3,5-dibromo-4-methoxyphenyl)acrylamido)propyl)butane-1,4-diaminium 2,2,2-trifluoroacetate]
MIC, growth inhibition towards S. aureus (S. aureus): 17.5 µM | Eryth/E. c: concentration required to restore erythromycin activity (E. coli ATCC 25922 [6]): 11.7 µM | Eryth/E. c: fold change (intrinsic MIC of test compound / combination MIC) (E. coli ATCC 25922 [6]): 1 fold | MIC [7]: ≤ 0.23 µM | MIC towards Pseudomonas aeruginosa (Pseudomonas aeruginosa): 8.75 µM | IC50 (Cytotoxicity assay): > 30 µM | MIC (MRSA ATCC 43300; MRSA ATCC 43300, mean (n = 2)): ≤ 0.23 µM | MIC (S. aureus ATCC 25923): 5.86 µM | Hemolysis (HC10), concentration of compound at 10% hemolytic activity (human red blood cells): ≤0.23 µM | Dox/P. a: concentration required to restore doxycycline activity (P. aeruginosa ATCC 27853 [9]): 5.86 µM | Dox/P. a: fold change (intrinsic MIC of test compound / combination MIC) (P. aeruginosa ATCC 27853 [9]): 32 fold | MIC (E. coli ATCC 25922 [12]): 11.7 µM | MIC (P. aeruginosa ATCC 27853 [13]): 188 µM | MIC (C. albicans ATCC 90028): 30 µM

MIC (A. baumannii AYE [2]; [14]): > 200 µM | MIC (K. pneumoniae ATCC 13883 [3]; [15]): > 200 µM | MIC (P. aeruginosa PAO1 [4]; [16]): > 200 µM
Structure (SMILES): CC[C@H]1OC(=O)[C@H](C)[C@@H](O[C@H]2C[C@@](C)(OC)[C@@H](O)[C@H](C)O2)[C@H](C)[C@@H](O[C@@H]2O[C@H](C)C[C@H](N(C)C)[C@H]2O)[C@](C)(O)C[C@@H](C)C(=O)[C@H](C)[C@@H](O)[C@]1(C)O [erythromycin]
